The text below walks through data of paper PMC12560828, “Chemical structure drives developmental toxicity of alkyl-substituted naphthalenes in zebrafish” (Environment international, 2025).

Common to all, as to assay type: in vivo, Danio rerio
One series concerns zebrafish embryos. Nature of the series: Body burden measurement (GC-MS/MS) and concentration uptake ratio, vial exposure. The conditions noted are these: 20 μM exposure; for measured concentration in embryo extract: 32 pooled embryos, 0.5 mL extract, single replicates. How it is done: (§1) Body burden was measured for exposure to five chemicals at two timepoints: 24 and 48 hpf. […] The exposure concentration was chosen as it was the maximum possible concentration that ensured enough viable animals for collection at 48 hpf and allowed direct comparison of chemical uptake at the same exposure concentration.
(§2) Chemicals were exposed at 20 μM following the exposure procedure detailed in section 1.3, 24 vials per chemical. At 24 hpf, embryos were pooled in groups of 32 embryos (combining embryos from 4 vials) into 1.5 mL polypropylene RINO-safe lock tubes (n = 3 per chemical treatment, n = 3 per control). Tubes were briefly placed on ice to reduce embryo movement (<1 min); the remaining medium was removed; the tube was then flash frozen in liquid nitrogen and stored at −20 °C until extraction. Embryos in the remaining vials were plated as previously described in section 1.3 until collection at 48 hpf following the same procedure as 24 hpf collections (n = 3 per chemical treatment, n = 1 control).
(§3) Tissue extraction was performed as previously reported ([Rude et al., 2025]). Each sample was spiked with 25 μL internal standard in ethyl acetate and 100 μL of 1 mm glass beads (Next Advance, Troy, NY United States) were added to the RINO-safe lock tubes containing thawed tissue samples and left on ice for 10 min 250 mg of Na2SO4 and 200 μL of ethyl acetate were added to each tube and vortexed. Tubes were homogenized at speed 8 for 6 min in a Bullet Blender (Next Advance, Troy, NY, United States). 300 μL of ethyl acetate was added to each tube and the homogenization step was repeated until no pieces of non-homogenized fish tissue remained. Samples were then centrifuged for 10 min at 4 °C, 1600g. Sample supernatant (0.5 mL) was collected into amber vials and stored at 4 °C until chemical analysis.
(§4) Samples were analyzed for quantitation and identification of 161 PAHs. The method was performed with an Agilent 7890 gas chromatograph (GC), with a 7000C triple quadrupole mass spectrometer (MS/MS) using an Agilent J&W PAH select (30 m × 250 μm × 0.15 μm GC column). Calibration for each analyte utilized at least a 4-point (range: 4–7, median 6 points, n = 161) curve with R^2 ≥ 0.99. Specific instrument conditions were modified from [Anderson et al. (2015)] and are detailed in Table S3. GC–MS/MS data was analyzed using MassHunter Quantitative Analysis v.B.06.00 SP1 build 6.0.388.1 software (Agilent Corp. Wilmington,DE) ([Anderson et al., 2015]). Dynamic muti-reaction monitoring mode was used during analyses, and all PAHs were identified using analytical standards obtained from multiple sources (Table S1). Collison energies were optimized for each individual unsubstituted PAH, alkylation series (C1, C2, etc.), and when possible, specific alkylation group (i.e. methyl, ethyl, etc.).
(§5) Body burden concentrations based on average embryo wet weight at each timepoint were determined by the equation below. Total measured chemical was calculated from ng/mL concentrations times sample volume (0.5 mL). Bodyburdennmol/mgbw=total measured chemicalnmol/number of fish32×average body weightmg
(§6) Average body weights at 24 hpf and 48 hpf were assumed to be 0.31 mg and 0.26 mg, respectively as determined previously ([Rericha et al., 2024]). Statistical analysis to compare time points within chemicals was performed using a two-sided Student’s t-test (p-value ≤ 0.05). An ANOVA with a follow-up Dunn’s test was used to compare body burden between chemicals at 24 hpf (p-value ≤ 0.05). Body burden concentrations at 24 hpf were compared to the estimated percent effect of each measured chemical at the exposure concentration used for body burden analysis (20 μM). These estimates were made using the fitted concentration-response curves previously described in section 2.3.2.2.
(§7) Concentration uptake ratios between vial exposures and 96-well plate exposures were compared using a two-sided Student’s t-test, p-values ≤ 0.05 were considered significant. […]

Assay in series [1]: as above
Conditions: zebrafish (Danio rerio), whole embryos (32 pooled, ethyl acetate extract), other: waterborne exposure of embryos in sealed vials, 20 μM exposure, 32 pooled embryos, 0.5 mL extract, single replicates, read-out: measured concentration in embryo extract. How it is done:
as §1, §2, §3, §4, §5, §6, §7

In series [2] the test system is zebrafish larvae, 120 hpf. Put plainly: Larval photomotor response (LPR) assay after vial exposure. The conditions noted are these: LPR. The procedure, abridged: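 Embryos bleached at 6 hpf, exposed in sealed glass vials (8 per vial, DMSO stock at 200x) with rotation overnight at 28 °C, then singulated into chemical-free medium and kept dark at 28 °C. Movement tracked minutes 6–24 at 120 hpf, 6 s bins log-normalized to AUC; LEL per light/dark period from first cycle; nominal water concentrations, dead/malformed larvae excluded.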

Where [3] appears, read: period dark, round 1, conc 3.125.
Where [4] appears, read: period dark, round 1, conc 6.25.
Setting [5] is: period dark, round 1, conc 12.5.
Where [6] appears, read: period light, round 1, conc 3.125.
Where [7] appears, read: period light, round 1, conc 6.25.
The mark [8] stands for this setting: period light, round 1, conc 12.5.
Setting [9] is: period dark, round 2, conc 37.5.
Setting [10] is: period light, round 2, conc 37.5.

Where “and” joins values, the source holds several entries; their conditions need not be identical. Identical values can stand only once.

`Cc1ccc2cccc(C)c2c1` [1,7-dimethylnaphthalene]: the body burden concentration result with zebrafish embryos (24 hpf) was “highest concentration”. The “measured concentration in embryo extract” value was 33000 ng/mL and 33300 ng/mL with zebrafish embryos (24 hpf); 11600 ng/mL and 10100 ng/mL with zebrafish embryos (48 hpf). The concentration at 24 hpf, 20 μM in series [1] was found to be 34600 ng/mL. For the same compound, the concentration at 48 hpf, 20 μM in series [1] was determined as 11300 ng/mL. The fold_change in series [2] (setting [3]) is reported as -0.2153; in series [2] (setting [4]), -0.5415; in series [2] (setting [5]), -0.6708; in series [2] (period dark, round 1, conc 25), -0.6391; in series [2] (setting [6]), -0.5634; in series [2] (setting [7]) it was -0.1569. The fold_change in series [2] (setting [8]) is on record as -0.05053; in series [2] (period light, round 1, conc 25), 0.1308.

On to `Cc1cccc2c(C)cccc12` [1,5-dimethylnaphthalene], for which the “measured concentration in embryo extract” value in the series on zebrafish embryos (24 hpf) is 28000 ng/mL and 23900 ng/mL; with zebrafish embryos (48 hpf) it was 9300 ng/mL and 7200 ng/mL. Moreover, the concentration at 24 hpf, 20 μM in series [1] stood at 29200 ng/mL. Besides, in series [1], the concentration at 48 hpf, 20 μM was 9160 ng/mL. In addition, the fold_change was 0.2385 in series [2] (setting [3]); 0.04355 in series [2] (setting [4]); 0.0001175 in series [2] (setting [5]); -0.1166 in series [2] (period dark, round 1, conc 25); -0.72 in series [2] (period dark, round 2, conc 30); -0.6231 in series [2] (setting [9]). Moreover, the fold_change in series [2] (setting [6]) came to 0.2204; in series [2] (setting [7]), 0.1087; in series [2] (setting [8]) it was 0.8122; in series [2] (period light, round 1, conc 25), 0.799; in series [2] (period light, round 2, conc 30), 0.3918; in series [2] (setting [10]) it was 0.2643.

As to `Cc1ccc2ccc(C)cc2c1` [2,7-dimethylnaphthalene], the “measured concentration in embryo extract” value with zebrafish embryos (24 hpf) is 19900 ng/mL; in the series on zebrafish embryos (48 hpf), 8080 ng/mL and 7630 ng/mL. Further, the concentration at 24 hpf, 20 μM in series [1] stood at 26500 ng/mL. Moreover, the concentration at 48 hpf, 20 μM in series [1] stood at 8890 ng/mL. For the same compound, the fold_change was 0.1561 in series [2] (setting [3]); -0.165 in series [2] (setting [4]); -0.13 in series [2] (setting [5]); -0.7363 in series [2] (period dark, round 1, conc 25); -0.8227 in series [2] (period dark, round 1, conc 50); 0.7628 in series [2] (setting [6]). For the same compound, the fold_change in series [2] (setting [7]) came to 0.4574; in series [2] (setting [8]), 1.067; in series [2] (period light, round 1, conc 25) it was 1.005; in series [2] (period light, round 1, conc 50), 0.2181.

For the compound `CCc1ccc2ccccc2c1` [2-ethylnaphthalene], the fold_change in series [2] (setting [3]) was -0.0209; in series [2] (setting [4]), -0.02917; in series [2] (setting [5]), -0.4131; in series [2] (period dark, round 1, conc 25) it was -0.9177; in series [2] (period dark, round 2, conc 30), -0.0665; in series [2] (setting [9]) it was -0.3116. The fold_change in series [2] (setting [6]) is reported as -0.3417; in series [2] (setting [7]), 0.05317; in series [2] (setting [8]), 0.3434; in series [2] (period light, round 1, conc 25), -0.2321; in series [2] (period light, round 2, conc 30), 0.3708; in series [2] (setting [10]) it was -0.3232.

`Cc1cc(C)c2c(C)cccc2c1` [2,4,5-trimethylnaphthalene]: in the series with zebrafish embryos, the “percent reduction in body burden between 24 and 48 hpf” value was 46%. The “measured concentration in embryo extract” value is 9270 ng/mL and 6860 ng/mL with zebrafish embryos (24 hpf); 4950 ng/mL and 4550 ng/mL and 2080 ng/mL in the series on zebrafish embryos (48 hpf). Besides, the concentration at 24 hpf, 20 μM in series [1] turned out to be 9620 ng/mL. Moreover, the fold_change in series [2] (setting [3]) was -0.1188; in series [2] (setting [4]), -0.09148; in series [2] (setting [5]), -0.4407; in series [2] (period dark, round 2, conc 12.8) it was -0.3131; in series [2] (period dark, round 2, conc 16), -0.104; in series [2] (period dark, round 2, conc 20) it was -0.2326. The fold_change in series [2] (setting [6]) was -0.1438; in series [2] (setting [7]), -0.1964; in series [2] (setting [8]), 0.215; in series [2] (period light, round 2, conc 12.8), -0.6609; in series [2] (period light, round 2, conc 16) it was 0.3746; in series [2] (period light, round 2, conc 20), 0.3257.
